Measured values published in patent US8822688B2, “Imidazo[1,2-a]pyridine derivative” (Astellas Pharma Inc., priority 2010, dated 2014).
Where a name gives a salt, the structure may show the parent alone.

Biological target: T1, human PDE4B2 (Homo sapiens, UniProt Q07343)
T1 construct: FLAG; made in house; host or cells: COS-1 cells (plasmid amplified in E. coli)
Assay: Human PDE4B activity inhibition test (SPA, [3H]-cAMP)
Type: biochemical
Settings: FLAG-tagged human PDE4B2 purified from COS-1 cells; 30 min at room temperature; read-out: IC50 (nM), human PDE4B inhibitory activity
Experimental: Test Method 1: Human PDE4B Inhibitory Activity
(1) Purification of Human PDE4B Enzyme
Plasmid DNA encoding FLAG-tagged human PDE4B2 was prepared and transfected into E. coli, and mass cultivation was performed. After extracting and purifying the plasmid DNA from the E. coli, the resultant was transfected into COS-1 cells and cultured. After the cells were homogenized, the expressed enzyme was purified using a FLAG peptide affinity column.
(2) Human PDE4B Activity Inhibition Test
1 μl/well of DMSO solution in which various concentrations of test compounds were dissolved and 74 μl/well of the purified enzyme diluted with a buffer were added to 96-well plates, and incubated at room temperature for 10 minutes. A buffer including 40 nM [^3H]-cAMP (Amersham, TRK559) and 4 μM cAMP were added at 25 μl/well and reacted for 30 minutes at room temperature. A suspension (18 mM ZnSO4, 5 mM IBMX, distilled water) of polylysin coated yttrium silicate SPA beads (Amersham, RPNQ0010) was added at 50 μl/well, and the reaction was stopped. After standing for 20 minutes at room temperature, the radioactivity was measured using a top count instrument and set as an index of enzyme activity. For evaluating the enzyme inhibitory activity of the test compound in each experiment, a value of IC50 was calculated with the radiation activity of the well of adding the vehicle (DMSO) and the enzyme as 0% inhibition and the radiation activity of the well of adding only the vehicle and not adding the enzyme as 100% inhibition.

T1 sequence (Q07343 1-564 isoform Q07343-2): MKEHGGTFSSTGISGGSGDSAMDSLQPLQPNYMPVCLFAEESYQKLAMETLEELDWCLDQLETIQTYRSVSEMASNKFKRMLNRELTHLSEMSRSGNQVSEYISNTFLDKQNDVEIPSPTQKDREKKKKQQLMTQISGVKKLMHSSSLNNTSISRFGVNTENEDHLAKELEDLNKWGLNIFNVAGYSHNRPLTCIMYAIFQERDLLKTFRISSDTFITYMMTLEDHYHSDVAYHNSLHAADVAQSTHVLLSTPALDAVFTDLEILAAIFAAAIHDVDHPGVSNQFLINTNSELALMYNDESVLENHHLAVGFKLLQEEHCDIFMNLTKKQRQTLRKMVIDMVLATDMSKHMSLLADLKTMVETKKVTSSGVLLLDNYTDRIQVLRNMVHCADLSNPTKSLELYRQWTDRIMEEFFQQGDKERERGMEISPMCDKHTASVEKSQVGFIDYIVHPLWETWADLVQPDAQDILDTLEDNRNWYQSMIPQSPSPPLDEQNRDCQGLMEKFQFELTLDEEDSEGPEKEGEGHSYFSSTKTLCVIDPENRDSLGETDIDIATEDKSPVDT

Row | IC50 [nM] | Structure (SMILES)
1 | 11.8 | CO[C@@]1(CO)CCN(c2c3c(c(C(N)=O)c4nc5ccccc5n24)CC(C)(C)C3)C[C@@H]1F (relative stereo) [Example 22, rel-11-[(3R,4S)-3-fluoro-4-(hydroxymethyl)-4-methoxypiperidin-1-yl]-2,2-dimethyl-2,3-dihydro-1H-cyclopenta[4,5]pyrido[1,2-a]benzimidazole-4-carboxamide]
2 | 3.3 | COC1(CO)CCN(c2c3c(c(C(N)=O)c4nc5ccccc5n24)C2CCC3C2)CC1 (centres unmarked) [Example 14]
3 | 26 | COC1(CO)CCN(c2c3c(c(C(N)=O)c4nc5c(n24)CCCC5)CCC3)CC1 [Example 15]
4 | 15 | COC1(CO)CCN(c2c3c(c(C(N)=O)c4nc5ccccc5n24)CCSC3)CC1 [Example 16]
5 | 18 | CC1(CN)CCN(c2c3c(c(C(N)=O)c4nc5ccccc5n24)CCC3)CC1 [Example 18, 11-[4-(aminomethyl)-4-methylpiperidin-1-yl]-2,3-dihydro-1H-cyclopenta[4,5]pyrido[1,2-a]benzimidazole-4-carboxamide dihydrochloride]
6 | 42 | NC(=O)c1c2c(c(N3CCC4(CO)CC4C3)n3c1nc1ccccc13)CCC2 (centres unmarked) [Example 23, 11-[6-(hydroxymethyl)-3-azabicyclo[4.1.0]hept-3-yl]-2,3-dihydro-1H-cyclopenta[4,5]pyrido[1,2-a]benzimidazole-4-carboxamide hydrochloride]
7 | 8.2 | NC(=O)c1c2c(c(N3CCC4(CC3)CNC4)n3c1nc1ccccc13)CCC2 [Example 25, 11-(2,7-diazaspiro[3.5]non-7-yl)-2,3-dihydro-1H-cyclopenta[4,5]pyrido[1,2-a]benzimidazole-4-carboxamide dihydrochloride]
8 | 13 | NC(=O)c1c2c(c(N3CCC4(CCNC4)CC3)n3c1nc1ccccc13)CCC2 [Example 26]

Further lines, the molecule ahead of its results:

Row | Structure (SMILES) | IC50 [nM]
9 | CO[C@]1(CO)CCN(c2c3c(c(C(N)=O)c4nc5ccccc5n24)CCC3)C[C@H]1F (relative stereo) [Example 10] | 48
10 | CC1(CO)CCN(c2c3c(c(C(N)=O)c4nc5ccccc5n24)CCC3)CC1 [Example 2] | 13
11 | CC1(C)CCc2c(c(N3CCC(C)(CO)CC3)n3c(nc4ccccc43)c2C(N)=O)C1 [Example 4] | 86
12 | N#CC1(CO)CCN(c2c3c(c(C(N)=O)c4nc5ccccc5n24)CCC3)CC1 [Example 5] | 14
13 | COC1(CO)CCN(c2c3c(c(C(N)=O)c4nc5ccccc5n24)CCC3)CC1 [Example 8] | 8
14 | COC1(CO)CCN(c2c3c(c(C(N)=O)c4nc5ccccc5n24)CC(C)(C)C3)CC1 [Example 12] | 2.7
